Values of other authors, collected in patent US9180195B2, “Controlled release gels” (Nano Fiber Matrices B.V., priority 2005, dated 2015).

Settings: for time to complete release from LMWG gel: from gels of N,N′-dibenzoyl-L-cystine (DBC)

| SMILES | initial release rate relative to AQ (from gels of DBC) | time to complete release from LMWG gel |
| --- | --- | --- |
| Oc1ccc2ccccc2n1 [HQ, 2-hydroxyquinoline] | approximately seven | approximately 15 min |
| Nc1cccc2cccnc12 [AQ, 8-aminoquinoline] |  | ~1 h |
